Source: patent publication US20230233500A1, “Gasdermin D (GSDMD) Succination for the Treatment of Inflammatory Disease” (University of Massachusetts, priority 2020, published 2023)
Where a name gives a salt, the structure may show the parent alone.

Test system: LPS septic shock in WT mice
Test: LPS septic shock model
Type: in vivo, mouse
Description: FIGS. 1A-L. Fumarate inhibits pyroptosis. Bone marrow-derived macrophages (BMDMs) were treated as indicated and LDH, IL-1β or TNF-α measured by ELISA (A-C), GSDMD/β-actin by immunoblotting (D) or permeabilization of cells to SYTOX orange (E-F). GSDMD oligomerization in native and reduced cell lysates treated as above (G). Timecourse of permeabilization to SYTOX orange or GSDMD-N formation in cells treated as indicated (H-I). Survival rates of WT mice after 50 mg/kg of LPS (n−10) or LPS+fumarate (n=9) (J). Levels of IL-1β or TNF-α from serum of WT mice at 5 hours post-intraperitoneal injection with 5 mg/kg LPS (n=6) or control PBS (n=3) (K, L). A, B, C, I and are pooled from three independent experiments. D, E, F, G, H and I are representative from three independent experiments. J, K, L data points indicate individual mice. *, P<0.05, **, P<0.01; ***, P<0.001; ****, P<0.0001) (J, Mantel Cox survival analysis; A-C, K Two-way ANOVA). Error bars show means±SEM.
FIGS. 8A-B. Fumarate inhibits pyroptosis in vivo. (A-B) LC/MS Fumarate quantification in splenocytes (A) and IL-1 ELISA analysis (B) in serum from WT C57/BL6 mice administered FHIN2 (50 mg/kg) by IP injection followed by LPS (10 mg/kg) by IP injection for 5 hours. Data points indicative of individual mice. **, P<0.01 (Two-way ANOVA). Error bars show means±SEM.
Conditioned media or serum was collected as indicated and IL-1β or TNF-α, were quantified by sandwich ELISA (R&D Systems).
Mice aged 8-12 weeks were administered LPS 5 mg/kg by intraperitoneal injection. Serum was collected after 5 h for ELISA analysis. For survival studies, mice were administered LPS 50 mg/kg intraperitoneally and monitored every 12 h for up to 96 h.

SMILES: COC(=O)/C=C/C(=O)OC [Fumarate, Dimethyl fumarate]
- serum IL-1β levels (5 hours after ip LPS 5 mg/kg): reduced
- serum TNF-α levels (5 hours after ip LPS 5 mg/kg): not
- survival (lethal dose LPS 50 mg/kg, single dose of fumarate): increased survival
